Biological target: T1, BRD4 (Homo sapiens, UniProt O60885)
T1 construct: Flp-In LgBiT HEK293 cells; lytic luminescence degradation readout
Assay: BRD4 HiBiT Assay (degradation of endogenous BRD4 in HiBiT knock-in Flp-In LgBiT HEK293 cells)
Assay type: cell-based
Text: The purpose of the BRD4 HiBiT Assay was to assess the binding affinity of the dimer to BRD4 and subsequent protein degradation.
BRD4 HiBiT cells (Flp-In™ LgBiT and KI HiBiT) were generated by first creating a Flp-In™293 stable cell line, transfecting in the pFRT serial vector containing an integrated Flp recombination target (FRT) site (Thermo Fisher Scientific, Waltham, MA) to HEK293 cells (ATCC, Manassas, VA). The LgBiT expression sequence (Promega Corporation, Madison, WA) was then introduced into the genome via Flp recombinase-mediated DNA recombination at the FRT site. HiBiT sequence (Promega Corporation, Madison, WA) was then knocked in to the endogenous BRD4 protein in the Flp-In™ LgBiT HEK293 cells and successful clones verifying by sequencing. Work on BRD4 HiBiT cell line was performed under license from Promega Corporation (Madison, WA). Cells were maintained in DMEM (Invitrogen™, Waltham, MA) supplemented with 10% FBS (AusGeneX, Molendinar, Australia) and 1% penicillin/streptomycin (Invitrogen™, Waltham, MA) in a humidified incubator at 5% CO2, 37° C.
Compounds were dissolved in DMSO (10 mM), serially diluted from 10 mM to 1.5 nM, and pre-incubated for 2 hours. Exponentially growing cells were seeded at 1×10^4 cells per well of 384 well plate (Corning, New York #3570). Cells were treated with compound for 6 or 48 hours. Following treatment, Nano-Glo® HiBiT Lytic Detection reagent (Promega Corporation, Madison, WA) was added according to manufacturer's instructions, and signal read using BMG CLARIOstar plate reader (BMG Labtech, Ortenburg, Germany). Each data point was performed in duplicate for every experiment. A DC50 value was calculated from linear regression analysis of the plots.

[1] = BRD4 degradation in cells at 6-hour timepoint
[2] = BRD4 degradation in cells at 48-hour timepoint

## Cc1sc2c(c1C)C(c1ccc(Cl)cc1)=N[C@@H](CC(=O)NCC[C@]13OB(c4ccccc4CCCC(=O)Nc4cccc5c4C(=O)N(C4CCC(=O)NC4=O)C5=O)O[C@H]1C[C@H]1C[C@@H]3C1(C)C)c1nnc(C)n1-2 (mixture of isomers) [Example 4, 4-(2-((3aR,4R,6R,7aS)-3a-(2-(2-((S)-4-(4-chlorophenyl)-2,3,9-trimethyl-6H-thieno[3,2-f][1,2,4]triazolo[4,3-a][1,4]diazepin-6-yl)acetamido)ethyl)-5,5-dimethylhexahydro-4,6-methanobenzo[d][1,3,2]dioxaborol-2-yl)phenyl)-N-(2-(2,6-dioxopiperidin-3-yl)-1,3-dioxoisoindolin-4-yl)butanamide]
[1]
  DC50: < 100 nM

## Cc1ncsc1-c1ccc([C@H](C)NC(=O)[C@@H]2C[C@@H](O)CN2C(=O)[C@H](c2cc(OCc3ccccc3B3O[C@@H]4[C@H]5CC[C@H](C5)[C@]4(CCCNC(=O)C[C@@H]4N=C(c5ccc(Cl)cc5)c5c(sc(C)c5C)-n5c(C)nnc54)O3)no2)C(C)C)cc1 (single isomer, unassigned) [Example 9]
[1]
  DC50: < 100 nM

## Cc1cc(C(C(=O)N2C[C@H](O)C[C@H]2C(=O)NCc2ccc(Cl)cc2B2O[C@H]3C[C@H]4C[C@H](C4(C)C)[C@@]3(CCNC(=O)C[C@@H]3N=C(c4ccc(Cl)cc4)c4c(sc(C)c4C)-n4c(C)nnc43)O2)C(C)C)on1 (single isomer, unassigned) [Example 10]
[2]
  DC50: 1000 to 10000 nM

## Cc1cc(C(C(=O)N2C[C@H](O)C[C@H]2C(=O)NCc2ccc(Cl)cc2OC[C@]23OB(c4ccccc4CCNC(=O)C[C@@H]4N=C(c5ccc(Cl)cc5)c5c(sc(C)c5C)-n5c(C)nnc54)O[C@H]2C[C@H]2C[C@@H]3C2(C)C)C(C)C)on1 (single isomer, unassigned) [Example 11]
[2]
  DC50: 1000 to 10000 nM

## Cc1ncsc1-c1ccc(CNC(=O)[C@@H]2C[C@@H](O)CN2C(=O)C(c2cc(OCc3ccccc3B3O[C@@H]4C[C@@H]5C[C@@H](C5(C)C)[C@]4(CCNC(=O)C[C@@H]4N=C(c5ccc(Cl)cc5)c5c(sc(C)c5C)-n5c(C)nnc54)O3)no2)C(C)C)cc1 (single isomer, unassigned) [Example 13]
[1]
  DC50: < 100 nM

## Cc1ncsc1-c1ccc(CNC(=O)[C@@H]2C[C@@H](O)CN2C(=O)[C@@H](NC(=O)CCc2ccccc2B2O[C@H]3C[C@H]4C[C@H](C4(C)C)[C@@]3(CCNC(=O)C[C@@H]3N=C(c4ccc(Cl)cc4)c4c(sc(C)c4C)-n4c(C)nnc43)O2)C(C)(C)C)cc1 [Example 1, (2S,4R)-1-((S)-2-(3-(2-((3aR,4R,6R,7aS)-3a-(2-(2-((S)-4-(4-chlorophenyl)-2,3,9-trimethyl-6H-thieno[3,2-f][1,2,4]triazolo[4,3-a][1,4]diazepin-6-yl)acetamido)ethyl)-5,5-dimethylhexahydro-4,6-methanobenzo[d][1,3,2]dioxaborol-2-yl)phenyl)propanamido)-3,3-dimethylbutanoyl)-4-hydroxy-N-(4-(4-methylthiazol-5-yl)benzyl)pyrrolidine-2-carboxamide]
[1]
  DC50: < 100 nM

## Cc1sc2c(c1C)C(c1ccc(Cl)cc1)=N[C@@H](CC(=O)NCCC[C@]13OB(c4ccccc4CCCC(=O)Nc4cccc5c4C(=O)N(C4CCC(=O)NC4=O)C5=O)O[C@H]1C[C@H]1C[C@@H]3C1(C)C)c1nnc(C)n1-2 (stereo partly drawn) [Example 2, 4-(2-((3aR,4R,6R,7aS)-3a-(3-(2-((S)-4-(4-chlorophenyl)-2,3,9-trimethyl-6H-thieno[3,2-f][1,2,4]triazolo[4,3-a][1,4]diazepin-6-yl)acetamido)propyl)-5,5-dimethylhexahydro-4,6-methanobenzo[d][1,3,2]dioxaborol-2-yl)phenyl)-N-(2-(2,6-dioxopiperidin-3-yl)-1,3-dioxoisoindolin-4-yl)butanamide]
[1]
  DC50: < 100 nM

## Cc1ncsc1-c1ccc(CNC(=O)[C@@H]2C[C@@H](O)CN2C(=O)[C@@H](NC(=O)CCc2cccc(F)c2B2O[C@H]3C[C@H]4C[C@H](C4(C)C)[C@@]3(CCNC(=O)C[C@@H]3N=C(c4ccc(Cl)cc4)c4c(sc(C)c4C)-n4c(C)nnc43)O2)C(C)(C)C)cc1 [Example 3, (2S,4R)-1-((2S)-2-(3-(2-((3aR,4R,6R,7aS)-3a-(2-(2-((6S)-4-(4-chlorophenyl)-2,3,9-trimethyl-6H-thieno[3,2-f][1,2,4]triazolo[4,3-a][1,4]diazepin-6-yl)acetamido)ethyl)-5,5-dimethylhexahydro-4,6-methanobenzo[d][1,3,2]dioxaborol-2-yl)-3-fluorophenyl)propanamido)-3,3-dimethylbutanoyl)-4-hydroxy-N-(4-(4-methylthiazol-5-yl)benzyl)pyrrolidine-2-carboxamide]
[1]
  DC50: < 100 nM

## Cc1ncsc1-c1ccc(CNC(=O)[C@@H]2C[C@@H](O)CN2C(=O)[C@@H](NC(=O)CCc2ccccc2B2O[C@H]3C[C@H]4C[C@H](C4(C)C)[C@@]3(CCCNC(=O)C[C@@H]3N=C(c4ccc(Cl)cc4)c4c(sc(C)c4C)-n4c(C)nnc43)O2)C(C)(C)C)cc1 [Example 5, (2S,4R)-1-((S)-2-(3-(2-((3aR,4R,6R,7aS)-3a-(3-(2-((S)-4-(4-chlorophenyl)-2,3,9-trimethyl-6H-thieno[3,2-f][1,2,4]triazolo[4,3-a][1,4]diazepin-6-yl)acetamido)propyl)-5,5-dimethylhexahydro-4,6-methanobenzo[d][1,3,2]dioxaborol-2-yl)phenyl)propanamido)-3,3-dimethylbutanoyl)-4-hydroxy-N-(4-(4-methylthiazol-5-yl)benzyl)pyrrolidine-2-carboxamide]
[1]
  DC50: < 100 nM

## Cc1ncsc1-c1ccc([C@H](C)NC(=O)[C@@H]2C[C@@H](O)CN2C(=O)[C@@H](NC(=O)CCc2ccccc2B2O[C@H]3C[C@H]4C[C@H](C4(C)C)[C@@]3(CCNC(=O)C[C@@H]3N=C(c4ccc(Cl)cc4)c4c(sc(C)c4C)-n4c(C)nnc43)O2)C(C)(C)C)cc1 [Example 6, (2S,4R)-1-((S)-2-(3-(2-((3aR,4R,6R,7aS)-3a-(2-(2-((S)-4-(4-chlorophenyl)-2,3,9-trimethyl-6H-thieno[3,2-f][1,2,4]triazolo[4,3-a][1,4]diazepin-6-yl)acetamido)ethyl)-5,5-dimethylhexahydro-4,6-methanobenzo[d][1,3,2]dioxaborol-2-yl)phenyl)propanamido)-3,3-dimethylbutanoyl)-4-hydroxy-N—((S)-1-(4-(4-methylthiazol-5-yl)phenyl)ethyl)pyrrolidine-2-carboxamide]
[1]
  DC50: < 100 nM

## Cc1ncsc1-c1ccc([C@H](C)NC(=O)[C@@H]2C[C@@H](O)CN2C(=O)[C@@H](NC(=O)CCc2ccccc2B2O[C@H]3C[C@H]4C[C@H](C4(C)C)[C@@]3(CCCNC(=O)C[C@@H]3N=C(c4ccc(Cl)cc4)c4c(sc(C)c4C)-n4c(C)nnc43)O2)C(C)(C)C)cc1 [Example 7, (2S,4R)-1-((S)-2-(3-(2-((3aR,4R,6R,7aS)-3a-(3-(2-((S)-4-(4-chlorophenyl)-2,3,9-trimethyl-6H-thieno[3,2-f][1,2,4]triazolo[4,3-a][1,4]diazepin-6-yl)acetamido)propyl)-5,5-dimethylhexahydro-4,6-methanobenzo[d][1,3,2]dioxaborol-2-yl)phenyl)propanamido)-3,3-dimethylbutanoyl)-4-hydroxy-N—((S)-1-(4-(4-methylthiazol-5-yl)phenyl)ethyl)pyrrolidine-2-carboxamide]
[1]
  DC50: < 100 nM

## Cc1sc2c(c1C)C(c1ccc(Cl)cc1)=N[C@@H](CC(=O)NCCC[C@@]13OB(c4ccccc4CCC4CN(c5ccc(N6CCC(=O)NC6=O)cc5)C4)O[C@@H]1C[C@@H]1C[C@H]3C1(C)C)c1nnc(C)n1-2 [Example 8, 2-((S)-4-(4-chlorophenyl)-2,3,9-trimethyl-6H-thieno[3,2-f][1,2,4]triazolo[4,3-a][1,4]diazepin-6-yl)-N-(3-((3aS,4S,6S,7aR)-2-(2-(2-(1-(4-(2,4-dioxotetrahydropyrimidin-1(2H)-yl)phenyl)azetidin-3-yl)ethyl)phenyl)-5,5-dimethyltetrahydro-4,6-methanobenzo[d][1,3,2]dioxaborol-3a(4H)-yl)propyl)acetamide]
[1]
  DC50: < 100 nM

## Cc1cc([C@H](C(=O)N2C[C@H](O)C[C@H]2C(=O)NCc2ccc(Cl)cc2OCCCB2O[C@H]3C[C@H]4C[C@H](C4(C)C)[C@@]3(CCNC(=O)C[C@@H]3N=C(c4ccc(Cl)cc4)c4c(sc(C)c4C)-n4c(C)nnc43)O2)C(C)C)on1 [Example 12, (2S,4R)—N-(4-chloro-2-(3-((3aR,4R,6R,7aS)-3a-(2-(2-((S)-4-(4-chlorophenyl)-2,3,9-trimethyl-6H-thieno[3,2-f][1,2,4]triazolo[4,3-a][1,4]diazepin-6-yl)acetamido)ethyl)-5,5-dimethylhexahydro-4,6-methanobenzo[d][1,3,2]dioxaborol-2-yl)propoxy)benzyl)-4-hydroxy-1-((R)-3-methyl-2-(3-methylisoxazol-5-yl)butanoyl)pyrrolidine-2-carboxamide]
[2]
  DC50: 1000 to 10000 nM

Source: patent publication US20260355325A1, “DIMER COMPOUNDS” (KESMALEA THERAPEUTICS LIMITED, priority 2023, published 2026)
